Test results: ChEMBL document CHEMBL5126551, “Spiral molecules with antimalarial activities: A review” (Eur J Med Chem, 2022)
In brackets after ≈: the same amount, converted by molar mass.

What was measured:
[1] = Cytotoxicity against human MRC5 cells assessed as inhibition of cell growth incubated for 7 days by MTT assay; type: toxicity, cell-based
Plasmodium falciparum [2] = test: Antimalarial activity against chloroquine-resistant Plasmodium falciparum K1 infected in human erythrocytes incubated for 72 hrs by parasite lactate dehydrogenase assay; type: functional, organism-based; conditions: K1, Erythrocyte
Plasmodium berghei = test: Antiplasmodial activity against luciferase expressing hepatic stage Plasmodium berghei sporozoites infected in human Huh-7 cells assessed as inhibition of parasite infection preincubated with cells for 1 hrs followed by parasite infection and measured after 48 hrs by bioluminescence assay; type: functional, organism-based
Plasmodium falciparum [3] = test: Antimalarial activity against chloroquine-resistant Plasmodium falciparum K14 infected in human red blood cells assessed as inhibition of parasite growth incubated for 42 hrs by [3H]-hypoxanthine incorporation assay; type: functional, organism-based, Red blood cell; conditions: K14, Erythrocyte
Plasmodium falciparum [4] = test: Antimalarial activity against chloroquine-sensitive Plasmodium falciparum 3D7 infected in human erythrocyte assessed as inhibition of parasite growth incubated for 66 hrs by [3H]-hypoxanthine incorporation assay based liquid scintillation spectrometric method; type: functional, organism-based; conditions: 3D7, Erythrocyte
Plasmodium falciparum [5] = test: Antimalarial activity against chloroquine and quinine sensitive Plasmodium falciparum assessed as inhibition of parasite growth; type: functional, organism-based
Plasmodium falciparum [6] = test: Antimalarial activity against Plasmodium falciparum 3D7 infected in human plasma assessed as inhibition of parasite growth by Giema staining based assay; type: functional, organism-based; conditions: 3D7, Plasma
Plasmodium falciparum [7] = test: Antimalarial activity against chloroquine-sensitive Plasmodium falciparum D6 assessed as inhibition of parasite growth by parasite lactate dehydrogenase assay; type: functional, organism-based
Plasmodium falciparum [8] = test: Antimalarial activity against chloroquine-resistant Plasmodium falciparum W2 assessed as inhibition of parasite growth by parasite lactate dehydrogenase assay; type: functional, organism-based
Plasmodium falciparum [9] = test: Antimalarial activity against Plasmodium falciparum K1 assessed as inhibition of parasite growth incubated for 72 hrs by DAPI-staining based microscopic analysis; type: functional, organism-based; conditions: K1, 72 h
Plasmodium falciparum [10] = test: Antimalarial activity against Plasmodium falciparum NF54 assessed as inhibition of parasite growth incubated for 72 hrs by DAPI-staining based microscopic analysis; type: functional, organism-based; conditions: NF54, 72 h
Plasmodium falciparum [11] = test: Antimalarial activity against chloroquine sensitive Plasmodium falciparum NF54 assessed as inhibition of parasite growth by [3H]-hypoxanthine incorporation assay; type: functional, organism-based
Plasmodium falciparum [12] = test: Antimalarial activity against chloroquine resistant Plasmodium falciparum K1 assessed as inhibition of parasite growth by [3H]-hypoxanthine incorporation assay; type: functional, organism-based
Plasmodium falciparum [13] = test: Antimalarial activity against chloroquine-resistant Plasmodium falciparum W2 assessed as inhibition of parasite growth; type: functional, organism-based
Plasmodium falciparum [14] = test: Antimalarial activity against Plasmodium falciparum Dd2 assessed as inhibition of parasite growth; type: functional, organism-based
Plasmodium falciparum [15] = test: Antimalarial activity against Plasmodium falciparum 3D7 assessed as inhibition of parasite growth; type: functional, organism-based
Plasmodium falciparum [16] = test: Antimalarial activity against chloroquine and antifolate resistant Plasmodium falciparum K1 infected in human erythrocyte preincubated for 24 hrs followed by hypoxanthine addition and measured after 18 to 20 hrs by [3H]-hypoxanthine incorporation assay; type: functional, organism-based
Plasmodium falciparum [17] = test: Antimalarial activity against chloroquine-sensitive Plasmodium falciparum 3D7 infected in human erythrocytes assessed as inhibition of parasite growth incubated for 48 hrs by parasite lactate dehydrogenase based colorimetric assay; type: functional, organism-based; conditions: 3D7, 48 h
Plasmodium falciparum [18] = test: Antimalarial activity against chloroquine-resistant Plasmodium falciparum FCR3 infected in human erythrocytes assessed as inhibition of parasite growth incubated for 48 hrs by [3H]-hypoxanthine incorporation assay; type: functional, organism-based

Question: Which results are given for `COc1cc2c(cc1O)[C@]13C[C@@H](OC)C=CC1=CCN3CC2` [ERYSOVINE]?
Answer: IC50 at 7 days [1]: > 64000 nM; IC50 (Plasmodium falciparum [2]): 4100 nM

Question: For `CC(C)(C)C(=O)C1C(c2ccccc2)(c2ccccc2)N=NC12C(=O)N1[C@@H](C(=O)OC(c3ccccc3)c3ccccc3)C(C)(C)S[C@@H]12` (some centres not stated), which IC50 (Plasmodium berghei) is on record?
Answer: 3320 nM

Question: Which IC50 (Plasmodium falciparum [3]) does the source give for `CCN(CC)c1ccc(N2C(=O)C(Oc3ccccc3)C23c2ccccc2-c2ccccc23)cc1` (configuration not stated) here?
Answer: 6400 nM

Question: With `CCOc1ccc(N2C(=O)C3(c4ccccc4Cc4ccccc43)C23c2ccccc2-c2ccccc23)cc1` as the compound, how does the IC50 (Plasmodium falciparum [3]) read?
Answer: 5000 nM

Question: With `CCCCCCCCCCCCCCC[C@@H](O)CC1(OC)CCC2(C=CC(=O)C=C2)O1` (some centres not stated) as the compound, how does the IC50 (Plasmodium falciparum [4]) read?
Answer: 480 nM

Question: For `CCOC(=O)C1=C2N=C(c3cccnc3)NN2C2=C(C(=O)CCC2)C12C(=O)Nc1ccc(F)cc12` (configuration not stated), which IC50 (Plasmodium falciparum [5]) is on record?
Answer: 122 nM

Question: Which IC50 (Plasmodium falciparum [6]) does the source give for `CC1=CC(=O)CC(C)(C)[C@@]12C=C[C@H](C)O2` here?
Answer: 27 nM

Question: Which IC50 (Plasmodium falciparum [7]) does the source give for `Cc1ccc(C2OOC3(CCN(S(=O)(=O)c4ccccc4)CC3)OO2)cc1` here?
Answer: 300 nM

Question: And the IC50 (Plasmodium falciparum [8])?
Answer: > 200 nM

Question: With `O=C1OC[C@H](CN2C3=C4C(=O)c5ccccc5C4C[C@@H]4CO[C@@]3(O4)c3ccccc32)O1` (some centres not stated) as the compound, how does the IC50 (Plasmodium falciparum [9]) read?
Answer: 9 nM

Question: And the IC50 (Plasmodium falciparum [10])?
Answer: 9 nM

Question: For `c1cc(C2CCC3(CC2)OOC2(O3)C3CC4CC(C3)CC2C4)ccc1OCCN1CCOCC1` (configuration not stated), which IC50 (Plasmodium falciparum [11]) is on record?
Answer: 2.8 ng/mL (≈ 5.96 nM)

Question: And the IC50 (Plasmodium falciparum [12])?
Answer: 2.8 ng/mL (≈ 5.96 nM)

Question: For `COC(=O)C1=CO[C@@H](C)[C@@H]2CN3CC[C@@]4(C(=O)Nc5ccccc54)[C@H]3C[C@H]12`, which IC50 (Plasmodium falciparum [13]) is on record?
Answer: 17000 ng/mL (≈ 46200 nM)

Question: Which IC50 (Plasmodium falciparum [11]) does the source give for `NCC1CCC2(CC1)OOC1(O2)C2CC3CC(C2)CC1C3` (configuration not stated) here?
Answer: 0.42 ng/mL (≈ 1.43 nM)

Question: What about the IC50 (Plasmodium falciparum [12]) of the same compound?
Answer: 0.39 ng/mL (≈ 1.33 nM)

Question: What does the source list for `C1CCCCCC2(CCCCC1)OOCCCOO2`?
Answer: EC50 (Plasmodium falciparum [14]): 897 nM; EC50 (Plasmodium falciparum [15]): 268 nM

Question: With `Cc1ccc(S(=O)(=O)N2CCC3(CC2)OOC(C2CCC(C)CC2)OO3)cc1` (configuration not stated) as the compound, how does the IC50 (Plasmodium falciparum [7]) read?
Answer: 700 nM

Question: And the IC50 (Plasmodium falciparum [8])?
Answer: 830 nM

Question: Which results are given for `C=CCOc1c2n(c3ccccc13)C=CC[C@@]21C(=O)c2ccccc2N1CC=C`?
Answer: IC50 (Plasmodium falciparum [9]): ≥ 5000 nM; IC50 (Plasmodium falciparum [10]): ≥ 5000 nM

Question: With `CCOC(=O)C1=C2N=C(c3ccncc3)NN2C2=C(C(=O)CCC2)C12C(=O)Nc1ccccc12` (configuration not stated) as the compound, how does the IC50 (Plasmodium falciparum [5]) read?
Answer: 295 nM

Question: Which IC50 (Plasmodium falciparum [16]) does the source give for `C=CCN1C(=O)[C@@]2(c3ccccc31)C(c1ccccc1)C=CN1N3C=CC=CC3C(=O)[C@@]12C/C=C/c1ccccc1` (some centres not stated) here?
Answer: 8300 nM

Question: Which IC50 at 7 days [1] does the source give for `COc1cc2c(cc1O)CCN1CC=C3C=C[C@H](OC)C[C@]321` [ERYSODINE] here?
Answer: > 64000 nM

Question: And the IC50 (Plasmodium falciparum [2])?
Answer: 6500 nM

Question: Which IC50 (Plasmodium falciparum [5]) does the source give for `CCOC(=O)C1=C2N=C(c3cccnc3)NN2C2=C(C(=O)CCC2)C12C(=O)Nc1ccccc12` (configuration not stated) here?
Answer: 422 nM

Question: For `COc1cc([C@@H]2c3cc(Br)ccc3NC3(C(=O)Nc4ccccc43)[C@H]2C)ccc1O` (some centres not stated), which IC50 (Plasmodium falciparum [17]) is on record?
Answer: 1310 nM

Question: And the IC50 (Plasmodium falciparum [18])?
Answer: 1520 nM

Question: For `C=CCN1C(=O)[C@]2(CC=CN3c4ccccc4C(=O)[C@@]32CC=C)c2ccccc21`, which IC50 (Plasmodium falciparum [16]) is on record?
Answer: 9300 nM

Question: With `COc1cc2c(cc1OC)[C@]13C[C@@H](OC)C=CC1=CCN3CC2` [ERYSOTRINE] as the compound, how does the IC50 at 7 days [1] read?
Answer: > 64000 nM

Question: And the IC50 (Plasmodium falciparum [2])?
Answer: 20600 nM

Question: For `COc1cc([C@@H]2c3cc(Cl)ccc3NC3(C(=O)Nc4ccccc43)[C@H]2C)ccc1O` (some centres not stated), which IC50 (Plasmodium falciparum [17]) is on record?
Answer: 1800 nM

Question: What about the IC50 (Plasmodium falciparum [18]) of the same compound?
Answer: 1670 nM

Question: With `CC(C)(N)CNC(=O)C(=O)OC1CCCC2(C1)OOC1(O2)C2CC3CC(C2)CC1C3` (configuration not stated) as the compound, how does the IC50 (Plasmodium falciparum [11]) read?
Answer: 0.91 ng/mL (≈ 2.15 nM)

Question: What about the IC50 (Plasmodium falciparum [12]) of the same compound?
Answer: 1 ng/mL (≈ 2.37 nM)

Question: For `CC(C)OC(=O)C1=C2N=C(c3ccncc3)NN2C2=C(C(=O)CCC2)C12C(=O)Nc1ccccc12` (configuration not stated), which IC50 (Plasmodium falciparum [5]) is on record?
Answer: 246 nM

Question: For `CC(C)(C)OC(=O)C1C(c2ccccc2)(c2ccccc2)C12C(=O)N1[C@@H](C(=O)OC(c3ccccc3)c3ccccc3)C(C)(C)S[C@@H]12` (some centres not stated), which IC50 (Plasmodium berghei) is on record?
Answer: 2670 nM

Question: What does the source list for `O=C(O)CC1CCC2(CC1)OOC1(O2)C2CC3CC(C2)CC1C3` (configuration not stated)?
Answer: IC50 (Plasmodium falciparum [11]): 45 ng/mL (≈ 140 nM); IC50 (Plasmodium falciparum [12]): 34 ng/mL (≈ 105 nM)

Question: Which IC50 (Plasmodium falciparum [6]) does the source give for `CC(=O)O[C@@H]1[C@H](C)[C@@H](C)O[C@@]2([C@@H]1C)[C@@H](C)C=C(C)C(=O)[C@@H]2C` here?
Answer: 16000 nM

Question: Which IC50 (Plasmodium falciparum [11]) does the source give for `CC(C)(N)CNC(=O)CC1CCC2(CC1)OOC1(O2)C2CC3CC(C2)CC1C3` (configuration not stated) here?
Answer: 0.54 ng/mL (≈ 1.38 nM)

Question: And the IC50 (Plasmodium falciparum [12])?
Answer: 0.57 ng/mL (≈ 1.45 nM)

Question: With `CO[C@H]1C=CC2=CCN3CCc4cc5c(cc4[C@]23C1)OCO5` [ERYTHRALINE] as the compound, how does the IC50 at 7 days [1] read?
Answer: > 64000 nM

Question: What about the IC50 (Plasmodium falciparum [2]) of the same compound?
Answer: 7300 nM

Question: For `CC(C)OC(=O)C1=C2N=C(c3cccnc3)NN2C2=C(C(=O)CCC2)C12C(=O)Nc1ccc(F)cc12` (configuration not stated), which IC50 (Plasmodium falciparum [5]) is on record?
Answer: 454 nM
